In patent US11267800B2, “Cyclohexyl acid triazole azines as LPA antagonists” (BRISTOL-MYERS SQUIBB COMPANY, priority 2017, dated 2022):
One block for each compound: values may come before it.

What was measured:
IPF patients = details: 26-week clinical trial in IPF patients (Palmer et al.); cited from earlier work
human LPA1 = biological target: T1, human LPA1 (Homo sapiens, UniProt Q92633); assay: LPA1 functional antagonist assay (calcium flux); type: cell-based; details: CHO cells overexpressing human LPA1; inhibition of calcium flux induced by 10 nM LPA; read-out: hLPA1 IC50
T1 construct: expressed in transfected cells; host or cells: Chinese hamster ovary (CHO) cells
How it was run: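 IC50 values come from 4-parameter logistic fits and mark 50% block of the calcium flux evoked by 10 nM LPA. Human LPA1-overexpressing CHO cells were calcium-dye loaded at 37 °C, then given test compound (0.08 nM–5 μM, 0.5% DMSO, HEPES-buffered HBSS with 0.1% fatty-acid-free BSA) for 20 min at room temperature before agonist.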

nerve-injured mice = details: pretreatment, nerve-injured mice (Inoue et al.); cited from earlier work
[1] = system: human foetal lung fibroblasts; details: Tager et al.; cited from earlier work
UUO mice = details: cited from earlier work
[2] = system: pancreatic cancer cell lines; details: cited from earlier work
[3] = system: mouse epithelial renal cell line, MCT; details: co-treatment with LPA, MCT cells; cited from earlier work

T1 sequence (Q92633 whole entry): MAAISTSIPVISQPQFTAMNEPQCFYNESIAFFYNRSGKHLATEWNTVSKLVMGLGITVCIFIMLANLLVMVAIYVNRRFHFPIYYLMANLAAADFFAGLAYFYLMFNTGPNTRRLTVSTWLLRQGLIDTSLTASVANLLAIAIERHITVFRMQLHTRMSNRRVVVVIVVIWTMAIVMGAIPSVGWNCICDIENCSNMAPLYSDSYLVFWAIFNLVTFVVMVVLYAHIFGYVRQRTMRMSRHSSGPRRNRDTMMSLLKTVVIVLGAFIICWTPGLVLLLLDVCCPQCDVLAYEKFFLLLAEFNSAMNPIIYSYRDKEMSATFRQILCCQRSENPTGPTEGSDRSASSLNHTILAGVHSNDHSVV

Compound: Cc1noc(-c2ccc(-c3ccc(C4(C(=O)O)CC4)cc3)cc2)c1NC(=O)O[C@H](C)c1ccccc1 [BMS-986020]
- rate of FVC (forced vital capacity) decline (IPF patients): significantly reduce

- IC50 (human LPA1): 104 nM
Compound: Cn1nnc(-c2ccc(O[C@H]3CCC[C@H](C(=O)O)C3)c(C#N)n2)c1CNc1nccc(C(C)(C)C)n1 [Example 407]

- IC50 (human LPA1): 22 nM
Compound: CCCOc1ccnc(NCc2c(-c3ccc(O[C@H]4CCC[C@H](C(=O)O)C4)c(C#N)n3)nnn2C)n1 [Example 408]

Compound: C[C@@H](N)[C@H]1CC[C@H](C(=O)Nc2ccncc2)CC1 [Example Y-27632]
- allodynia and hyperalgesia (nerve-injured mice): completely abolished

Compound: Cc1noc(-c2ccc(CSCCC(=O)O)cc2)c1NC(=O)OC(C)c1ccccc1Cl (stereo not drawn) [Ki16425]
- chemotaxis of human foetal lung fibroblasts induced by BAL from IPF patients [1]: blocked
- development of renal fibrosis (UUO mice): closely resembled the profile of LPA1 (−/−) mice
- LPA-induced and ascites-induced invasion activity ([2]; highly peritoneal metastatic pancreatic cancer cell line (Yamada et al.)): blocked
- in vitro migration in response to LPA and peritoneal fluid (ascites) from pancreatic cancer patients ([2]; pancreatic cancer cell lines (Yamada et al.)): effectively blocked
- LPA-induced increase in expression of CTGF [3]: almost completely suppressed
